Measured values published in patent publication US20250170140A1, “PHARMACEUTICAL COMPOSITION FOR PREVENTING OR TREATING CANCER COMPRISING CARNITINE ACYLCARNITINE CARRIER INHIBITOR AND PEROXISOMAL BETA OXIDATION INHIBITOR” (priority 2021, published 2025).
Read-outs that look alike come from different tables or passages of the source.

Tests used:
Assay type in all cases: cell-based
Hep-3B cells = test: SRB assay, liver cancer cell line Hep-3B
Experimental: (§1) As a comparison, omeprazole (KN510) and trimetazidine (KN713), a 3-ketoacyl CoA thiolase inhibitor, were co-treated. […] After cell inoculation, 96-well cell culture plates were incubated for 24 hours before the addition of experimental drugs. […] The cells were then incubated in a CO2 incubator for 48 hours, after which the assay was terminated by the addition of cold TCA. Cells were fixed in situ by gently adding 50 μl of cold 50% (w/v) TCA (final concentration: 10% TCA) and incubated at 4° C. for 60 min. The supernatant was discarded, and the plate was washed five times with distilled water and air dried. Sulforhodamine B (SRB) solution (100 μl) of 0.4% (w/v) in 1% acetic acid was added to each well, and the plate was left at room temperature for 10 min. After staining, unbound dye was removed by washing five times with 1% acetic acid, and the plate was air-dried. The bound dye was then solubilized with 10 mM trizma base, and the absorbance was recorded at 515 nm using an automated plate reader. […] The predicted synergistic activity of a combination of the present invention can be calculated using the Colby Equation in Equation 1 (S.R. Colby, Weeds, 1967, pp. 15, 20-22): In the present invention, the actual measure of anti-cancer activity of the combination treatment was the inhibition rate of cancer cell growth (%), and the predicted value (E) of the combination treatment was measured by substituting it into the above Colby Equation.

UACC-62 cells = test: SRB assay, melanoma cell line UACC-62
Experimental: as §1

OVCAR-8 cells = test: SRB assay, ovarian cancer cells OVCAR-8
Experimental: as §1

MIA PaCa-2 = test: SRB assay, cancer cell growth, pancreatic cancer cell line MIA PaCa-2; settings: for inhibition at 5 µM / inhibition at 10 µM: read-out: Inhibition rate of cancer cell growth (%) (Actual value)
Experimental: as §1, with “20-22): α and β are the measured anti-cancer activity of each compound alone, and E is the predicted anti-cancer activity of a mixture of α and β as a prediction.” for “20-22):”

K562 cells = test: SRB assay, leukemia cell line K562
Experimental: as §1

DLD-1 cells = test: SRB assay, colon cancer cell line DLD-1
Experimental: as §1

U251 cells = test: SRB assay, glioblastoma cell line U251
Experimental: as §1

MDA-MB-231 cells = test: SRB assay, breast cancer cell line MDA-MB-231
Experimental: as §1

SK-HEP-1 cells = test: SRB assay, liver cancer cell line SK-HEP-1
Experimental: as §1

SF295 cells = test: SRB assay, glioblastoma cell line SF295
Experimental: as §1

A549 cells = test: SRB assay, lung cancer cells A549
Experimental: as §1

H1975 cells = test: SRB assay, lung cancer cells H1975
Experimental: as §1

PC-3 cells = test: SRB assay, prostate cancer cells PC-3
Experimental: as §1

[1] = Homo sapiens, KN714 5 μM, read-out: Inhibition rate of cancer cell growth (%) (Actual value)
[2] = Homo sapiens, KN714 10 μM, read-out: Inhibition rate of cancer cell growth (%) (Actual value)

GI50 (MIA PaCa-2; Homo sapiens, MIA PaCa-2, 48 hours, read-out: GI50 (Half maximal growth inhibition concentration)): 1.9 µM
SMILES: CSc1ccc2c(c1)N(CCC1CCCCN1C)c1ccccc1S2 (stereo not drawn) [KN714, 10-[2-(1-methyl-2-piperidyl)ethyl]-2-(methylthio)phenothiazine]
inhibition at 5 µM (Hep-3B cells; Homo sapiens, Hep3B, KN714 5 μM, read-out: Inhibition rate of cancer cell growth (%) (Actual value)): 6.06%
inhibition at 10 µM (Hep-3B cells; Homo sapiens, Hep3B, KN714 10 μM, read-out: Inhibition rate of cancer cell growth (%) (Actual value)): 29.9%
Cancer cell growth rate Average (%) (Hep-3B cells; KN714 5 μM): 93.94%
Cancer cell growth rate Average (%) (Hep-3B cells; KN714 10 μM): 70.15%
inhibition at 5 µM (UACC-62 cells; [1]): 10.6%
inhibition at 10 µM (UACC-62 cells; [2]): 60.5%
Cancer cell growth rate Average (%) (UACC-62 cells; KN714 5 μM): 89.43%
Cancer cell growth rate Average (%) (UACC-62 cells; KN714 10 μM): 39.54%
inhibition at 5 µM (OVCAR-8 cells; [1]): 6.92%
inhibition at 10 µM (OVCAR-8 cells; [2]): 55.1%
Cancer cell growth rate Average (%) (OVCAR-8 cells; KN714 5 μM): 93.08%
Cancer cell growth rate Average (%) (OVCAR-8 cells; KN714 10 μM): 44.89%
inhibition at 5 µM (MIA PaCa-2; Homo sapiens, MIA PaCa-2, MIA PaCa-2 (Example 11), KN714 5 μM): 23.4%
inhibition at 10 µM (MIA PaCa-2; Homo sapiens, MIA PaCa-2, MIA PaCa-2 (Example 11), KN714 10 μM): 106%
inhibition at 5 µM (MIA PaCa-2; Homo sapiens, MIA PaCa-2, MIA PaCa-2, Example 1-3, Table 4, KN714 5 μM): 31.4%
inhibition at 10 µM (MIA PaCa-2; Homo sapiens, MIA PaCa-2, MIA PaCa-2, Example 1-3, Table 4, KN714 10 μM): 105%
Cancer cell growth rate Average (%) (MIA PaCa-2; MIA PaCa-2 (Example 11), KN714 5 μM): 76.62%
Cancer cell growth rate Average (%) (MIA PaCa-2; MIA PaCa-2 (Example 11), KN714 10 μM): −5.93%
Cancer cell growth rate Average (%) (MIA PaCa-2; MIA PaCa-2, Conc. 10^−5M, Table 1): −10.55%
Cancer cell growth rate Average (%) (MIA PaCa-2; MIA PaCa-2, Conc. 10^−6M, Table 1): 94.73%
Cancer cell growth rate Average (%) (MIA PaCa-2; MIA PaCa-2, Conc. 10^−7M, Table 1): 95.13%
Cancer cell growth rate Average (%) (MIA PaCa-2; MIA PaCa-2, Conc. 10^−8M, Table 1): 90.56%
Cancer cell growth rate Average (%) (MIA PaCa-2; MIA PaCa-2, Conc. 10^−9M, Table 1): 97.03%
Cancer cell growth rate Average (%) (MIA PaCa-2; MIA PaCa-2, Conc. 10^−10M, Table 1): 97.11%
Cancer cell growth rate Average (%) (MIA PaCa-2; MIA PaCa-2, Example 1-2, Table 2, KN714 5 μM): 68.62%
Cancer cell growth rate Average (%) (MIA PaCa-2; MIA PaCa-2, Example 1-2, Table 2, KN714 10 μM): −5.25%
inhibition at 5 µM (K562 cells; [1]): 57.8%
inhibition at 10 µM (K562 cells; [2]): 102%
Cancer cell growth rate Average (%) (K562 cells; KN714 5 μM): 42.25%
Cancer cell growth rate Average (%) (K562 cells; KN714 10 μM): −1.56%
inhibition at 5 µM (DLD-1 cells; [1]): 8.66%
inhibition at 10 µM (DLD-1 cells; [2]): 13.1%
Cancer cell growth rate Average (%) (DLD-1 cells; KN714 5 μM): 91.34%
Cancer cell growth rate Average (%) (DLD-1 cells; KN714 10 μM): 86.87%
inhibition at 5 µM (U251 cells; Homo sapiens, U-251, KN714 5 μM, read-out: Inhibition rate of cancer cell growth (%) (Actual value)): 40%
inhibition at 10 µM (U251 cells; Homo sapiens, U-251, KN714 10 μM, read-out: Inhibition rate of cancer cell growth (%) (Actual value)): 121%
Cancer cell growth rate Average (%) (U251 cells; KN714 5 μM): 59.99%
Cancer cell growth rate Average (%) (U251 cells; KN714 10 μM): −20.54%
inhibition at 5 µM (MDA-MB-231 cells; [1]): 9.36%
inhibition at 10 µM (MDA-MB-231 cells; [2]): 29.8%
Cancer cell growth rate Average (%) (MDA-MB-231 cells; KN714 5 μM): 90.64%
Cancer cell growth rate Average (%) (MDA-MB-231 cells; KN714 10 μM): 70.20%
inhibition at 5 µM (SK-HEP-1 cells; Homo sapiens, SK-HEP1, KN714 5 μM, read-out: Inhibition rate of cancer cell growth (%) (Actual value)): 17.6%
inhibition at 10 µM (SK-HEP-1 cells; Homo sapiens, SK-HEP1, KN714 10 μM, read-out: Inhibition rate of cancer cell growth (%) (Actual value)): 40.1%
Cancer cell growth rate Average (%) (SK-HEP-1 cells; KN714 5 μM): 82.37%
Cancer cell growth rate Average (%) (SK-HEP-1 cells; KN714 10 μM): 59.94%
inhibition at 5 µM (SF295 cells; Homo sapiens, SF-295, KN714 5 μM, read-out: Inhibition rate of cancer cell growth (%) (Actual value)): 16.5%
inhibition at 10 µM (SF295 cells; Homo sapiens, SF-295, KN714 10 μM, read-out: Inhibition rate of cancer cell growth (%) (Actual value)): 75.5%
Cancer cell growth rate Average (%) (SF295 cells; KN714 5 μM): 83.54%
Cancer cell growth rate Average (%) (SF295 cells; KN714 10 μM): 24.47%
inhibition at 5 µM (A549 cells; [1]): 2.15%
inhibition at 10 µM (A549 cells; [2]): 35.4%
Cancer cell growth rate Average (%) (A549 cells; KN714 5 μM): 97.85%
Cancer cell growth rate Average (%) (A549 cells; KN714 10 μM): 64.57%
inhibition at 5 µM (H1975 cells; Homo sapiens, NCI-H1975, KN714 5 μM, read-out: Inhibition rate of cancer cell growth (%) (Actual value)): -13.9%
inhibition at 10 µM (H1975 cells; Homo sapiens, NCI-H1975, KN714 10 μM, read-out: Inhibition rate of cancer cell growth (%) (Actual value)): 8.1%
Cancer cell growth rate Average (%) (H1975 cells; KN714 5 μM): 113.89%
Cancer cell growth rate Average (%) (H1975 cells; KN714 10 μM): 91.90%
inhibition at 5 µM (PC-3 cells; [1]): 18.1%
inhibition at 10 µM (PC-3 cells; [2]): 53%
Cancer cell growth rate Average (%) (PC-3 cells; KN714 5 μM): 81.94%
Cancer cell growth rate Average (%) (PC-3 cells; KN714 10 μM): 47.00%
